Reference: US20180303853A1, “COMPOSITIONS AND METHODS FOR TREATING BACTERIAL INFECTIONS USING CEFTAROLINE” (priority 2017, published 2018)
Like-named read-outs stand apart in the source and are kept apart here.

Key:
[1] = tested on: CYP1A2, CYP2B6, CYP2C8, CYP2C9, CYP2CI9, or CYP3A4/5; experiment: CYP induction in human hepatocytes; format: in vitro ADME
[2] = human, in vivo
Protocol: (§6) Study-Drug: Ceftaroline fosamil was administered in two consecutive 300 mg intravenous (IV) infusions over 30 minutes, every 12 hours (q12h). The 600-mg dose of ceftaroline fosamil infused over 60 minutes was split into two infusions in order to maintain the blind. For subjects with moderate renal impairment (30 ml/min<CrCl≤50 ml/min), as estimated by the Cockroft-Gault formula, unblinded pharmacy staff or unblinded study staff could adjust the dose of ceftaroline fosamil to two consecutive 200 mg infusions and readjust dose to two 300 mg infusions when renal function improved (CrCl>50 mL/min). The duration of treatment was between 5 to 7 days.
(§7) All subjects who received any amount of study drug were included in the safety analysis. Safety measures included monitoring for adverse events (AE) up to TOC and serious adverse events (SAE) through LFU; recording vital signs, physical examination, electrocardiogram (ECG), and clinical laboratory findings (clinical chemistry, hematology, and urinalysis), at prespecified times throughout the study.

MDRSP [3] = experiment: Example 5 CAP study, outcome by baseline pathogen; format: in vivo, S. pneumoniae
Description: (§1) Per-pathogen clinical cure rate and favorable microbiological outcome rate at TOC in the mMITTE and ME Populations;

[4] = tested on: MDRSP (multidrug-resistant); format: in vivo, Streptococcus pneumoniae; details: CABP, ME patients
Protocol: (§2) In both treatment groups of CABP Study 1, two doses of oral clarithromycin (500 mg q12 h), were administered as adjunctive therapy starting on Study Day 1. No adjunctive macrolide therapy was used in CABP Study 2. Patients with new or progressive pulmonary infiltrate(s) on chest radiography and clinical signs and symptoms consistent with CABP with the need for hospitalization and IV therapy were enrolled in the studies. Treatment duration was 5 to 7 days. A switch to oral therapy was not allowed. The Modified Intent-to-Treat Efficacy (MITTE) population, included all patients who received any amount of study drug according to their randomized, treatment group and were in PORT (Pneumonia Outcomes Research Team) Risk Class III or IV.
(§3) The primary efficacy endpoint was the clinical response at the Test of Cure (TOC) visit in the co-primary Ce and MITTE populations (Table 4).

[5] = human, in vivo; remark: listed apart in the source
Protocol: (§8) Study drug: Ceftaroline fosamil was administered in two consecutive 300 mg intravenous (IV) infusions over 30 minutes, every 12 hours (q12h). The 600-mg dose of ceftaroline fosamil infused over 60 minutes was split into two infusions in order to maintain the blind. For subjects with moderate renal impairment (30 mL/min<CrCl≤50 mL/min), as estimated by the Cockroft-Gault formula, unblinded pharmacy staff or unblinded study staff could adjust the dose of ceftaroline fosamil to two consecutive 200 mg infusions and readjust dose to two 300 mg infusions when renal function improved (CrCl>50 mL/min). The duration of treatment was between 5 to 7 days.
(§9) All subjects initially received two doses (500 mg every 12 hours) of oral adjunctive therapy with clarithromycin following randomization.
(§10) All subjects who received any amount of study drug were included in the safety analysis. Safety measures included monitoring for adverse events (AE) up to TOC and serious adverse events (SAE) through LFU; recording vital signs, physical examination, electrocardiogram (ECG), and clinical laboratory findings (clinical chemistry, hematology, and urinalysis); at prespecified times throughout the study.

H. parainfluenzae [6] = experiment: Example 4 CAP study, outcome by baseline pathogen; format: in vivo
Description: as §1

S. pneumoniae [7] = experiment: Example 4 CAP study, outcome by baseline pathogen; format: in vivo
Description: as §1

H. influenzae [8] = experiment: Example 4 CAP study, outcome by baseline pathogen; format: in vivo
Description: as §1

K. pneumoniae = experiment: Example 4 CAP study, outcome by baseline pathogen; format: in vivo
Description: as §1

S. aureus [9] = experiment: Example 4 CAP study, outcome by baseline pathogen; format: in vivo
Description: as §1

[10] = tested on: community-acquired pneumonia (CAP); experiment: Example 5 Phase 3 study, ceftaroline vs ceftriaxone with adjunctive clarithromycin in CAP, efficacy; format: in vivo, human
Description: (§4) The secondary objective of the study was to evaluate the following: the clinical response at end-of-therapy (EOT); the microbiological favorable outcome rate at TOC; the overall (clinical and radiographic) success rate at TOC; the clinical and microbiological response by pathogen at TOC; clinical relapse at late follow-up (LFU); microbiological reinfection/recurrence at LFU; and safety.
The primary efficacy outcome measures were the per-subject clinical cure rate at TOC in the CE and MITTE Populations. Subjects were considered clinically cured at TOC if they had total resolution of all signs and symptoms of the baseline infection, or improvement of the infection such that no further antimicrobial therapy was necessary.
(§5) Non-inferiority was concluded if the lower limit of the 95% CI was higher than −10%.

MDRSP [11] = experiment: Example 4 CAP study, outcome by baseline pathogen; format: in vivo, S. pneumoniae
Description: as §1

[12] = tested on: Community-Acquired Bacterial Pneumonia (CABP); experiment: Two Phase 3 studies in CABP, clinical cure at TOC (single and integrated/combined); format: in vivo, human; details: for Combined clinical cure rate: combined data of the two CAP studies, TOC
Protocol: as §2, §3

H. parainfluenzae [13] = experiment: Example 5 CAP study, outcome by baseline pathogen; format: in vivo
Description: as §1

S. pneumoniae [14] = experiment: Example 5 CAP study, outcome by baseline pathogen; format: in vivo
Description: as §1

H. influenzae [15] = experiment: Example 5 CAP study, outcome by baseline pathogen; format: in vivo
Description: as §1

E. coli = experiment: Example 5 CAP study, outcome by baseline pathogen; format: in vivo
Description: as §1

S. aureus [16] = experiment: Example 5 CAP study, outcome by baseline pathogen; format: in vivo
Description: as §1

Staphylococcus aureus = experiment: Integrated Phase 3 CABP studies, clinical cure by infecting pathogen; format: in vivo; details: ME patients
Protocol: as §2, §3

Streptococcus pneumoniae = experiment: as above; format: in vivo; details: ME patients
Protocol: as §2, §3

Klebsiella pneumoniae = experiment: as above; format: in vivo; details: ME patients
Protocol: as §2, §3

Haemophilus influenzae = experiment: as above; format: in vivo; details: ME patients
Protocol: as §2, §3

Escherichia coli = experiment: as above; format: in vivo; details: ME patients
Protocol: as §2, §3

[17] = Example 5 CAP study, safety
Protocol: as §8, §9, §10

[18] = tested on: community-acquired pneumonia (CAP); experiment: Example 4 Phase 3 study, ceftaroline vs ceftriaxone in CAP, efficacy; format: in vivo, human
Description: as §4, with “objectives” for “objective”, “were” for “was”, “following:” for “following: the”
The following criteria were used for evaluation: The primary efficacy outcome measures were the pet-subject clinical cure rate at test-of-cure (TOC) in the CE and MITTE Populations Subjects were considered clinically cured at TOC if they had total resolution of all signs and symptoms of the baseline infection, or improvement of the infection such that no further antimicrobial therapy was necessary.
as §5

[19] = Example 4 CAP study, safety
Protocol: as §6, §7

[20] = tested on: MSSA (methicillin-susceptible); experiment: Integrated Phase 3 CABP studies, clinical cure by infecting pathogen; format: in vivo, Staphylococcus aureus; details: ME patients
Protocol: as §2, §3

With `CCO/N=C(\C(=O)N[C@H](C(=O)[O-])[C@@H]1NC(C(=O)[O-])=C(Sc2nc(-c3cc[n+](C)cc3)cs2)CS1)c1nsc(N)n1.[H+]` [ceftaroline M-1] the “induction of CYP isoenzymes” value [1] was “not inducers”.

In the case of `CO/N=C(\C(=O)N[C@@H]1C(=O)N2C(C(=O)O)=C(CSc3nc(=O)c(=O)[nH]n3C)CS[C@H]12)c1csc(N)n1` [Ceftriaxone, ceftriaxone, reference compound], the “Adverse event: COPD” value [2] is reported as 5 (1.6) %, the “Adverse event: Diarrhea” value [2] is reported as 9 (2.9) % and the “Adverse event: Head ache” value [2] is reported as 5 (1.6) %. For the same compound, the “Adverse event: Hypertension” value [2] was 8 (2.6) %, the “Adverse event: Pleural effusion” value [2] was 7 (2.3) % and the “Adverse event: Pneumonia” value [2] was 4 (1.3) %. The “study-drug-related TEAE: alanine aminotransferase increased” value [2] was 1.0%, the “study-drug-related TEAE: blood creatinine phosphokinase increased” value [2] was 0.7% and the “study-drug-related TEAE: heartache” value [2] was 1.0%. For the same compound, the “subjects with any study-drug-related TEAEs” value [2] was 13.7%, the “Favorable Microbiological Outcome at TOC by Baseline Pathogen” value (shortened to “Favorable Microbiological Outcome at TOC”) (MDRSP [3]; Example 5, ME) was 0 and the “Clinical Cure Rate at the TOC Visit by Baseline Pathogen” value (from here on “Clinical Cure Rate at the TOC Visit”) (MDRSP [3]; Example 5, ME Population) was 0. For the same compound, the “Clinical cure rate by infecting pathogen” value [4] was 1/4 (25.0%), the “Adverse event: Constipation” value [5] was 5 (1.6) % and the “Adverse event: Hypertension” value [5] was 8 (2.6) %. The “TEAEs assessed as drug related by the Investigators” value [5] was 12.7%, the “study-drug-related TEAE: headache” value [5] was 0.0% and the “study-drug-related TEAE: hepatic enzyme increased” value [5] was 1.0%. The “study-drug-related TEAE: sinus bradychardia” value [5] was 1.0%, the “Favorable Microbiological Outcome at TOC” value (H. parainfluenzae [6]; Example 4, ME) was 7/7 (100.0) and the “Clinical Cure Rate at the TOC Visit” value (H. parainfluenzae [6]; Example 4, ME Population) was 6/7 (85.7). The “Favorable Microbiological Outcome at TOC” value (S. pneumoniae [7]; Example 4, ME) was 25/32 (78.1), the “Clinical Cure Rate at the TOC Visit” value (S. pneumoniae [7]; Example 4, ME Population) was 23/32 (71.9) and the “Favorable Microbiological Outcome at TOC” value (H. influenzae [8]; Example 4, ME) was 11/12 (91.7). The “Clinical Cure Rate at the TOC Visit” value (H. influenzae [8]; Example 4, ME Population) was 11/12 (91.7), the “Favorable Microbiological Outcome at TOC” value (K. pneumoniae; Example 4, ME) was 7/8 (87.5) and the “Clinical Cure Rate at the TOC Visit” value (K. pneumoniae; Example 4, ME Population) was 7/8 (87.5). The “Favorable Microbiological Outcome at TOC” value (S. aureus [9]; Example 4, ME) was 11/15 (73.3), the “Clinical Cure Rate at the TOC Visit” value (S. aureus [9]; Example 4, ME Population) was 8/15 (53.3) and the “Clinical Success at the TOC Visit” value ([10]; Example 5, CE population) was 183 (78.2) %. For the same compound, the “Favorable Microbiological Outcome at the TOC Visit” value ([10]; Example 5, ME population) was 56 (78.9) %, the “Clinical Success at the TOC Visit” value ([10]; Example 5, MITTE population) was 233 (77.7) % and the “Favorable Microbiological Outcome at the TOC Visit” value ([10]; Example 5, mMITTE population) was 63 (78.8) %. For the same compound, the “Favorable Microbiological Outcome at TOC” value (MDRSP [11]; Example 4, ME) was 2/4 (50.0), the “Clinical Cure Rate at the TOC Visit” value (MDRSP [11]; Example 4, ME Population) was 1/4 (25.0) and the “Clinical cure rate at TOC” value ([12]; CABP Study 1, CE population) was 183/234 (78.2%). The “Clinical cure rate at TOC” value ([12]; CABP Study 1, MITTE population) was 233/300 (77.7%), the “Clinical cure rate at TOC” value ([12]; CABP Study 2, CE population) was 166/215 (77.2%) and the “Clinical cure rate at TOC” value ([12]; CABP Study 2, MITTE population) was 206/273 (75.5%). For the same compound, the “Clinical cure rate at TOC” value ([12]; Integrated Studies, CE population, 5 to 7 days of therapy) was 349/449 (77.7%), the “Clinical cure rate at TOC” value ([12]; Integrated Studies, MITTE population) was 439/573 (76.6%) and the “Combined clinical cure rate” value ([12]; CE) was 349/449 (77.7) %. For the same compound, the “Combined clinical cure rate” value ([12]; ME) was 111/147 (75.5) %, the “Combined clinical cure rate” value ([12]; MITTE) was 439/573 (76.6) % and the “Combined clinical cure rate” value ([12]; mMITTE) was 126/168 (75.0) %. The “Favorable Microbiological Outcome at TOC” value (H. parainfluenzae [13]; Example 5, ME) was 9/10 (90.0), the “Clinical Cure Rate at the TOC Visit” value (H. parainfluenzae [13]; Example 5, ME Population) was 9/10 (90.0) and the “Favorable Microbiological Outcome at TOC” value (S. pneumoniae [14]; Example 5, ME) was 18/27 (66.7). The “Clinical Cure Rate at the TOC Visit” value (S. pneumoniae [14]; Example 5, ME Population) was 18/27 (66.7), the “Favorable Microbiological Outcome at TOC” value (H. influenzae [15]; Example 5, ME) was 6/8 (75.0) and the “Clinical Cure Rate at the TOC Visit” value (H. influenzae [15]; Example 5, ME Population) was 6/8 (75.0). The “Favorable Microbiological Outcome at TOC” value (E. coli; Example 5, ME) was 6/6 (100.0), the “Clinical Cure Rate at the TOC Visit” value (E. coli; Example 5, ME Population) was 5/6 (83.3) and the “Favorable Microbiological Outcome at TOC” value (S. aureus [16]; Example 5, ME) was 8/12 (66.7). The “Clinical Cure Rate at the TOC Visit” value (S. aureus [16]; Example 5, ME Population) was 7/12 (58.3), the “Clinical cure rate by infecting pathogen” value (Staphylococcus aureus) was 15/27 (55.6%) and the “Clinical cure rate by infecting pathogen” value (Streptococcus pneumoniae) was 41/59 (69.5%). The “Clinical cure rate by infecting pathogen” value (Klebsiella pneumoniae) was 10/12 (83.3%), the “Clinical cure rate by infecting pathogen” value (Haemophilus influenzae) was 17/20 (85.0%) and the “Clinical cure rate by infecting pathogen” value (Escherichia coli) was 9/12 (75.0%). For the same compound, the hemolytic anemia [17] was “No evidence of hemolytic anemia”, the percentage of deaths [17] was 2.6% and the “Clinical Success at the TOC Visit” value ([18]; Example 4, CE population) was 166 (77.2) %. The “Favorable Microbiological Outcome at the TOC Visit” value ([18]; Example 4, ME population) was 63 (82.9) %, the “Clinical Success at the TOC Visit” value ([18]; Example 4, MITTE population) was 206 (75.5) % and the hemolytic anemia [19] was “No evidence of hemolytic anemia”. For the same compound, the incidence of deaths [19] was 2.0% and the “Clinical cure rate by infecting pathogen” value [20] was 14/25 (56.0%).
